Experimental data taken from US8497276B2, “Substituted indolo-piperidine compounds” (ArQule, Inc., priority 2009, dated 2013).

Assays:
PACA-2 = assay: MTS Assay (cell growth inhibition), PACA-2; format: cell-based; settings: PACA-2 cells, 72 hours with test compound; concentration not given
Summary of the method: (§1)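 First, seed 3000 cells per well in low-serum (1% FBS) DMEM and culture 18 h. Next, add compounds prepared at 300× in DMSO and diluted 1:40 in DMEM; incubate 72 h. Finally, add MTS/PMS for 4 h and measure absorbance at 492 nm.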

Tec kinase = target: T1, Tec kinase (Homo sapiens, UniProt P42680); assay: Tec Kinase Activity Assay; format: biochemical; settings: 75 μM ATP, Pyk-2 substrate; compound concentration not given
T1 sequence (P42680 1-631): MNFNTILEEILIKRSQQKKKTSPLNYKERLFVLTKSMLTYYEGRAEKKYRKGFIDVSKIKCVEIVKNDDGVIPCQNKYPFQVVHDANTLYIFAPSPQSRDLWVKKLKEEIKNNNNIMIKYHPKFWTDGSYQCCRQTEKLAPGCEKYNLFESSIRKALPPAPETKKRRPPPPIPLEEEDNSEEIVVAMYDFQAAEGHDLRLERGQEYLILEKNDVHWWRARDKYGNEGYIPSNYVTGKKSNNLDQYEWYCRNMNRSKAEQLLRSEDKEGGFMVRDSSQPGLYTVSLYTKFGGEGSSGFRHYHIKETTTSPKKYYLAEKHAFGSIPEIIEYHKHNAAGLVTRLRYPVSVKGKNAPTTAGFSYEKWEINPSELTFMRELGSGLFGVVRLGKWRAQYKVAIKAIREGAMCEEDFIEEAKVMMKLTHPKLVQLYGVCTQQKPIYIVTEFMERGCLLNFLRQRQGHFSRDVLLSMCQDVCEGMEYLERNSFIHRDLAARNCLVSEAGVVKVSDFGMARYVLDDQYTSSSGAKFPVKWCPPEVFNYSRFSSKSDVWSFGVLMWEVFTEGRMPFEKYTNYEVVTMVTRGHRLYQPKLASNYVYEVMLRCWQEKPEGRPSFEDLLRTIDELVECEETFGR
Summary of the method: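 TEC enzyme was preincubated 30 min with compound in buffer containing 75 μM ATP, 10 mM MgCl2, 2 mM DTT and 50 mM Tris-HCl. Pyk-2 substrate was then added for 2 h at room temperature. Phosphorylated product was captured on streptavidin plates and detected by anti-phosphotyrosine ELISA with an alkaline phosphatase/Attophos fluorescent read-out.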

PC-3 = assay: MTS Assay (cell growth inhibition), PC-3; format: cell-based; settings: PC-3 cells, 72 hours with test compound; concentration not given
Summary of the method: as §1

MDA-MB 231 = assay: MTS Assay (cell growth inhibition), MDA-MB 231; format: cell-based; settings: MDA-MB 231 cells, 72 hours with test compound; concentration not given
Summary of the method: as §1

Kato III = assay: MTS Assay (cell growth inhibition), Kato III; format: cell-based; settings: Kato III cells, 72 hours with test compound; concentration not given
Summary of the method: as §1

DLD-1 = assay: MTS Assay (cell growth inhibition), DLD-1; format: cell-based; settings: DLD-1 cells, 72 hours with test compound; concentration not given
Summary of the method: as §1

NCI-H1299 = assay: MTS Assay (cell growth inhibition), NCI-H1299; format: cell-based; settings: NCI-H1299 cells, 72 hours with test compound; concentration not given
Summary of the method: as §1

Biochemical IC50 (% inhibition) Tec (Tec kinase) | SMILES | MTS cell kill data (% inhibition) PACA-2 (PACA-2) | MTS cell kill data (% inhibition) PC-3 (PC-3) | MTS cell kill data (% inhibition) MDA-MB 231 (MDA-MB 231) | MTS cell kill data (% inhibition) Kato III (Kato III) | MTS cell kill data (% inhibition) DLD-1 (DLD-1) | MTS cell kill data (% inhibition) NCI-H1299 (NCI-H1299)
B (B = 50-79% inhibition) | c1ccc(CCC2c3[nH]c4ccccc4c3CCN2c2ncnc3[nH]cnc23)cc1 (stereo not drawn) [Compound 27, 1-(2-phenylethyl)-2-(9H-purin-6-yl)-2,3,4,9-tetrahydro-1H-beta-carboline] | A (A = 80-100% inhibition) | A (A = 80-100% inhibition) | A (A = 80-100% inhibition) | A (A = 80-100% inhibition) | A (A = 80-100% inhibition) | A (A = 80-100% inhibition)
C (C = <50% inhibition) | Nc1nc(N2CCc3c([nH]c4ccccc34)C2CCc2ccccc2)c2nc[nH]c2n1 (stereo not drawn) [Compound 28, 6-[1-(2-phenylethyl)-1,3,4,9-tetrahydro-2H-beta-carbolin-2-yl]-9H-purin-2-amine] | C (C = <50% inhibition) | C (C = <50% inhibition) | C (C = <50% inhibition) | C (C = <50% inhibition) | B (B = 50-79% inhibition) | B (B = 50-79% inhibition)
C (C = <50% inhibition) | COc1ccc(C2c3[nH]c4ccccc4c3CCN2c2ncnc3[nH]cnc23)cc1 (stereo not drawn) [Compound 29, 1-(4-methoxyphenyl)-2-(9H-purin-6-yl)-2,3,4,9-tetrahydro-1H-beta-carboline] | B (B = 50-79% inhibition) | C (C = <50% inhibition) | C (C = <50% inhibition) | B (B = 50-79% inhibition) | B (B = 50-79% inhibition) | B (B = 50-79% inhibition)
C (C = <50% inhibition) | COc1ccc(C2c3[nH]c4ccccc4c3CCN2c2ncnc3[nH]ccc23)cc1 (stereo not drawn) [Compound 30, 1-(4-methoxyphenyl)-2-(7H-pyrrolo[2,3-d]pyrimidin-4-yl)-2,3,4,9-tetrahydro-1H-beta-carboline] | B (B = 50-79% inhibition) | A (A = 80-100% inhibition) | A (A = 80-100% inhibition) | A (A = 80-100% inhibition) | B (B = 50-79% inhibition) | B (B = 50-79% inhibition)
B (B = 50-79% inhibition) | COc1ccc(C2c3[nH]c4ccccc4c3CCN2c2ncnc3[nH]ncc23)cc1 (stereo not drawn) [Compound 31, 1-(4-methoxyphenyl)-2-(1H-pyrazolo[3,4-d]pyrimidin-4-yl)-2,3,4,9-tetrahydro-1H-beta-carboline] | B (B = 50-79% inhibition) | C (C = <50% inhibition) | B (B = 50-79% inhibition) | B (B = 50-79% inhibition) | B (B = 50-79% inhibition) | B (B = 50-79% inhibition)
